Earlier results on one compound are cited in patent US7691903B2, “Oxidation-sensitive hydrophilic active principle containing composition and use thereof” (L'Oreal, priority 2002, dated 2010).

For the data set the following is noted: ascorbic acid derivatives; J. Am. Acad. Dermatol., 1996, 34, 29-33.

As to `O=C1O[C@H]([C@@H](O)CO)C([O-])=C1OP(=O)([O-])[O-].O=C1O[C@H]([C@@H](O)CO)C([O-])=C1OP(=O)([O-])[O-].[Mg+2].[Mg+2].[Mg+2]` [magnesium ascorbyl phosphate], the bioavailability result was “very low”.
